Tested on: MV-4-11 cells
Experiment: Gene expression microarray analysis (Affymetrix PrimeView) and GSEA
Type: cell-based, human
Design: RFU PODN (11730768_x_at) / Fold change /veh PODN (11730768_x_at) / RFU LINC00158 (11744669_a_at) / Fold change /veh LINC00158 (11744669_a_at) / RFU DUSP10 (11751237_a_at) / Fold change /veh DUSP10 (11751237_a_at) / RFU ID3 (11757404_x_at) / Fold change /veh ID3 (11757404_x_at) / RFU PLEKHG5 (11737974_s_at) / Fold change /veh PLEKHG5 (11737974_s_at) / RFU LRRC4B (11730491_at) / Fold change /veh LRRC4B (11730491_at) / RFU GIMAP4 (11747438_a_at) / Fold change /veh GIMAP4 (11747438_a_at) / RFU KRT8 (11758183_x_at) / Fold change /veh KRT8 (11758183_x_at) / RFU CNN1 (11734310_a_at) / Fold change /veh CNN1 (11734310_a_at) / RFU VPS37D (11726825_at) / Fold change /veh VPS37D (11726825_at) / RFU C10orf10 (11716522_x_at) / Fold change /veh C10orf10 (11716522_x_at) / RFU KIR2DL2 /// KIR2DL4 /// KIR2DL5A /// KIR2DL5B /// KIR2DS1 /// KIR2DS2 /// KIR2DS3 /// KIR2DS4 /// KIR3DL3 /// KIR3DL3 /// KIR3DS1 (11738374_at) / Fold change /veh KIR2DL2 /// KIR2DL4 /// KIR2DL5A /// KIR2DL5B /// KIR2DS1 /// KIR2DS2 /// KIR2DS3 /// KIR2DS4 /// KIR3DL3 /// KIR3DL3 /// KIR3DS1 (11738374_at) / RFU C1QL1 (11718748_at) / Fold change /veh C1QL1 (11718748_at) / RFU TMPRSS4 (11747572_a_at) / Fold change /veh TMPRSS4 (11747572_a_at) / RFU HAMP (11756126_x_at) / Fold change /veh HAMP (11756126_x_at) / RFU RNFT2 (11725882_a_at) / Fold change /veh RNFT2 (11725882_a_at) / RFU NR4A2 (11747474_a_at) / Fold change /veh NR4A2 (11747474_a_at) / RFU ABCC12 (11746883_a_at) / Fold change /veh ABCC12 (11746883_a_at) / RFU TMEM136 (11760407_x_at) / Fold change /veh TMEM136 (11760407_x_at) / RFU CLDN22 /// WWC2 (11732394_at) / Fold change /veh CLDN22 /// WWC2 (11732394_at) / RFU HLA-DPB1 (11760878_x_at) / Fold change /veh HLA-DPB1 (11760878_x_at) / RFU SPINT1 (11716480_a_at) / Fold change /veh SPINT1 (11716480_a_at) / RFU GAP43 (11754022_s_at) / Fold change /veh GAP43 (11754022_s_at) / RFU A4GNT (11735810_at) / Fold change /veh A4GNT (11735810_at) / RFU PRB3 (11715151_x_at) / Fold change /veh PRB3 (11715151_x_at) / RFU TUBB4B (11761932_at) / Fold change /veh TUBB4B (11761932_at) / RFU CAPN14 (11732068_a_at) / Fold change /veh CAPN14 (11732068_a_at) / RFU TMCC2 (11721928_a_at) / Fold change /veh TMCC2 (11721928_a_at) / RFU IRGQ (11745062_a_at) / Fold change /veh IRGQ (11745062_a_at) / RFU FAM174B (11720279_a_at) / Fold change /veh FAM174B (11720279_a_at) / RFU TMPRSS4 (11748680_a_at) / Fold change /veh TMPRSS4 (11748680_a_at) / RFU FAM212B (11763350_a_at) / Fold change /veh FAM212B (11763350_a_at) / RFU PLEKHG5 (11743358_a_at) / Fold change /veh PLEKHG5 (11743358_a_at) / RFU ZSCAN30 (11745921_a_at) / Fold change /veh ZSCAN30 (11745921_a_at) / RFU CMKLR1 (11741424_a_at) / Fold change /veh CMKLR1 (11741424_a_at) / RFU LOC101060620 /// MAPK8IP1 (11723275_at) / Fold change /veh LOC101060620 /// MAPK8IP1 (11723275_at) / RFU SPTSSB (11747773_x_at) / Fold change /veh SPTSSB (11747773_x_at) / RFU PRSS12 (11739890_at) / Fold change /veh PRSS12 (11739890_at) / RFU BIN1 (11741810_x_at) / Fold change /veh BIN1 (11741810_x_at) / RFU WNT11 (11732464_a_at) / Fold change /veh WNT11 (11732464_a_at) / RFU C10orf10 (11716521_a_at) / Fold change /veh C10orf10 (11716521_a_at) / RFU C5orf56 (11738089_at) / Fold change /veh C5orf56 (11738089_at) / RFU CYB561 (11721691_x_at) / Fold change /veh CYB561 (11721691_x_at) / RFU ANKRD19P (11752326_a_at) / Fold change /veh ANKRD19P (11752326_a_at) / RFU OR2T12 /// OR2T33 /// OR2T8 (11738714_s_at) / Fold change /veh OR2T12 /// OR2T33 /// OR2T8 (11738714_s_at) / RFU VCAN (11748164_a_at) / Fold change /veh VCAN (11748164_a_at) / RFU JSRP1 (11732532_at) / Fold change /veh JSRP1 (11732532_at) / RFU KRTAP10-11 (11738290_x_at) / Fold change /veh KRTAP10-11 (11738290_x_at) / RFU MYO3A (11730013_a_at) / Fold change /veh MYO3A (11730013_a_at) / RFU EBF3 (11725865_a_at) / Fold change /veh EBF3 (11725865_a_at) / RFU CAMK2N1 (11719241_x_at) / Fold change /veh CAMK2N1 (11719241_x_at) / RFU C5orf56 (11738088_a_at) / Fold change /veh C5orf56 (11738088_a_at) / RFU OLFML3 (11715873_a_at) / Fold change /veh OLFML3 (11715873_a_at) / RFU LOC100653217 /// NTM (11731650_a_at) / Fold change /veh LOC100653217 /// NTM (11731650_a_at) / RFU MAPK11 (11762145_a_at) / Fold change /veh MAPK11 (11762145_a_at) / RFU FIZ1 (11724087_x_at) / Fold change /veh FIZ1 (11724087_x_at) / RFU OASL (11726364_x_at) / Fold change /veh OASL (11726364_x_at) / RFU SOX15 (11748057_x_at) / Fold change /veh SOX15 (11748057_x_at) / RFU CD79A (11719716_a_at) / Fold change /veh CD79A (11719716_a_at) / RFU HIST1H1D (11736915_at) / Fold change /veh HIST1H1D (11736915_at) / RFU CASKIN2 (11723855_a_at) / Fold change /veh CASKIN2 (11723855_a_at) / RFU LOC730098 (11760151_x_at) / Fold change /veh LOC730098 (11760151_x_at) / RFU OR4N2 (11742367_at) / Fold change /veh OR4N2 (11742367_at) / RFU PRRT2 (11749266_a_at) / Fold change /veh PRRT2 (11749266_a_at) / RFU SNX32 (11753110_a_at) / Fold change /veh SNX32 (11753110_a_at) / RFU CDHR5 (11726645_a_at) / Fold change /veh CDHR5 (11726645_a_at) / RFU RCAN1 (11760418_a_at) / Fold change /veh RCAN1 (11760418_a_at) / RFU FAM167A (11723789_a_at) / Fold change /veh FAM167A (11723789_a_at) / RFU FAM26E (11764081_at) / Fold change /veh FAM26E (11764081_at) / RFU ISYNA1 (11749810_s_at) / Fold change /veh ISYNA1 (11749810_s_at) / RFU ACY1 (11761880_at) / Fold change /veh ACY1 (11761880_at) / RFU 11764098_at / Fold change /veh 11764098_at / RFU SAMD14 (11745864_x_at) / Fold change /veh SAMD14 (11745864_x_at) / RFU NPB (11741838_a_at) / Fold change /veh NPB (11741838_a_at) / RFU TMPRSS6 (11731388_a_at) / Fold change /veh TMPRSS6 (11731388_a_at) / RFU KRTAP10-2 (11738614_at) / Fold change /veh KRTAP10-2 (11738614_at) / RFU ARHGAP8 /// PRR5-ARHGAP8 (11727945_x_at) / Fold change /veh ARHGAP8 /// PRR5-ARHGAP8 (11727945_x_at) / RFU KRTAP5-7 /// NADSYN1 (11734609_at) / Fold change /veh KRTAP5-7 /// NADSYN1 (11734609_at) / RFU RASL12 (11751679_a_at) / Fold change /veh RASL12 (11751679_a_at) / RFU CDKN2B (11736163_a_at) / Fold change /veh CDKN2B (11736163_a_at) / RFU PRF1 (11729649_at) / Fold change /veh PRF1 (11729649_at) / RFU, ZNF638 /// ZNF638-IT1 / Fold change vs veh, ZNF638 /// ZNF638-IT1 / RFU, PANK3 / Fold change vs veh, PANK3 / RFU, SH3YL1 / Fold change vs veh, SH3YL1 / RFU, ZEB2 / Fold change vs veh, ZEB2 / RFU, NRIP1 / Fold change vs veh, NRIP1 / RFU, PTTG1IP / Fold change vs veh, PTTG1IP / RFU, CAPN2 / Fold change vs veh, CAPN2 / RFU, MED14 / Fold change vs veh, MED14 / RFU, SNORA58 / Fold change vs veh, SNORA58 / RFU, C1orf63 / Fold change vs veh, C1orf63 / RFU, LRRFIP1 / Fold change vs veh, LRRFIP1 / RFU, NDUFAF7 / Fold change vs veh, NDUFAF7 / RFU, SLC12A2 / Fold change vs veh, SLC12A2 / RFU, IBTK / Fold change vs veh, IBTK / RFU, ESF1 / Fold change vs veh, ESF1 / Fold change vs veh, TMEM50B / RFU, TAOK1 / Fold change vs veh, TAOK1 / RFU, ACBD3 / Fold change vs veh, ACBD3 / RFU, TMA16 / Fold change vs veh, TMA16 / RFU, RWDD3 / Fold change vs veh, RWDD3 / RFU, BCAT1 / Fold change vs veh, BCAT1 / RFU, EDEM3 / Fold change vs veh, EDEM3 / RFU, TMEM33 / Fold change vs veh, TMEM33 / RFU, WDR75 / Fold change vs veh, WDR75 / RFU, AHCTF1 / Fold change vs veh, AHCTF1 / RFU, TFRC / Fold change vs veh, TFRC / RFU, ZDHHC17 / Fold change vs veh, ZDHHC17 / RFU, NOM1 / Fold change vs veh, NOM1 / RFU, ARL8B / Fold change vs veh, ARL8B / RFU, ZBTB11 / Fold change vs veh, ZBTB11 / RFU, TAMM41 / Fold change vs veh, TAMM41 / RFU, KIAA1704 /// LOC100996395 / Fold change vs veh, KIAA1704 /// LOC100996395 / RFU, ING1 / Fold change vs veh, ING1 / RFU, TRMT61B / Fold change vs veh, TRMT61B / RFU, FUBP3 / Fold change vs veh, FUBP3 / RFU, TP53 / Fold change vs veh, TP53 / RFU, TNKS2 / Fold change vs veh, TNKS2 / RFU, ZFP14 / Fold change vs veh, ZFP14 / RFU, ACTR2 / Fold change vs veh, ACTR2 / RFU, PPP3R1 / Fold change vs veh, PPP3R1 / RFU, PIK3R1 / Fold change vs veh, PIK3R1 / RFU, HNRNPA1 / Fold change vs veh, HNRNPA1 / RFU, RNF170 / Fold change vs veh, RNF170 / RFU, ZNF28 / Fold change vs veh, ZNF28 / RFU, RNGTT / Fold change vs veh, RNGTT / RFU, OGT / Fold change vs veh, OGT / RFU, BRD1 / Fold change vs veh, BRD1 / RFU, MARS / Fold change vs veh, MARS / RFU, ZNF655 / Fold change vs veh, ZNF655 / RFU, FAHD1 / Fold change vs veh, FAHD1 / RFU, BDP1 / Fold change vs veh, BDP1 / RFU, LRRCC1 / Fold change vs veh, LRRCC1 / RFU, ARID1A / Fold change vs veh, ARID1A / RFU, ZNF146 / Fold change vs veh, ZNF146 / RFU, ZNF330 / Fold change vs veh, ZNF330 / RFU, GPN3 / Fold change vs veh, GPN3 / RFU, C9orf123 / Fold change vs veh, C9orf123 / RFU, N4BP2L2 / Fold change vs veh, N4BP2L2 / RFU, ARFIP1 / Fold change vs veh, ARFIP1 / RFU, FAM179B / Fold change vs veh, FAM179B / RFU, BCL10 / Fold change vs veh, BCL10 / RFU, UHRF1BP1L / Fold change vs veh, UHRF1BP1L / RFU, BET1 / Fold change vs veh, BET1 / RFU, CNOT2 / Fold change vs veh, CNOT2 / RFU, ZNF268 / Fold change vs veh, ZNF268 / Fold change vs veh, ZNF507 / RFU, DGCR2 / Fold change vs veh, DGCR2 / RFU, WDSUB1 / Fold change vs veh, WDSUB1 / Fold change vs veh, HSP90B1 /// MIR3652 / RFU, ADSS / Fold change vs veh, ADSS / RFU, GK / Fold change vs veh, GK / RFU, ZNF148 / Fold change vs veh, ZNF148 / RFU, TAF9 / Fold change vs veh, TAF9 / RFU, SLC1A5 / Fold change vs veh, SLC1A5 / RFU, SLMO2 / Fold change vs veh, SLMO2 / RFU, ABCC4 / Fold change vs veh, ABCC4 / RFU, LOC101060439 /// RAP1B / Fold change vs veh, LOC101060439 /// RAP1B / RFU, RFX7 / Fold change vs veh, RFX7 / RFU, GTPBP10 / Fold change vs veh, GTPBP10 / RFU, CNEP1R1 / Fold change vs veh, CNEP1R1 / RFU, BIVM-ERCC5 /// ERCC5 / Fold change vs veh, BIVM-ERCC5 /// ERCC5 / RFU, ILF3 / Fold change vs veh, ILF3 / RFU 11762660_at / Fold change /veh 11762660_at / RFU VCAN (11757783_s_at) / Fold change /veh VCAN (11757783_s_at) / RFU DDX43 (11728927_at) / Fold change /veh DDX43 (11728927_at) / RFU KRT8 (11758188_x_at) / Fold change /veh KRT8 (11758188_x_at) / RFU NKD1 (11759106_at) / Fold change /veh NKD1 (11759106_at) / RFU SRD5A1 (11742802_a_at) / Fold change /veh SRD5A1 (11742802_a_at) / RFU TPSAB1 /// TPSB2 (11721975_s_at) / Fold change /veh TPSAB1 /// TPSB2 (11721975_s_at) / RFU GSTM3 (11746129_a_at) / Fold change /veh GSTM3 (11746129_a_at) / RFU IL23R (11737362_x_at) / Fold change /veh IL23R (11737362_x_at) / RFU TMEM51 (11727254_a_at) / Fold change /veh TMEM51 (11727254_a_at) / RFU PIWIL2 (11732686_x_at) / Fold change /veh PIWIL2 (11732686_x_at) / RFU ORM1 (11744905_x_at) / Fold change /veh ORM1 (11744905_x_at) / RFU CCDC152 (11743942_at) / Fold change /veh CCDC152 (11743942_at) / RFU ECM1 (11717891_a_at) / Fold change /veh ECM1 (11717891_a_at) / RFU IL23R (11748794_a_at) / Fold change /veh IL23R (11748794_a_at) / RFU TNFAIP8L3 (11732012_x_at) / Fold change /veh TNFAIP8L3 (11732012_x_at) / RFU MBOAT4 (11741988_at) / Fold change /veh MBOAT4 (11741988_at) / RFU 11764193_at / Fold change /veh 11764193_at / RFU TMEM53 (11763286_at) / Fold change /veh TMEM53 (11763286_at) / RFU MAGEB2 (11727129_at) / Fold change /veh MAGEB2 (11727129_at) / RFU TMEM200A (11744735_a_at) / Fold change /veh TMEM200A (11744735_a_at) / RFU CCDC152 (11751479_a_at) / Fold change /veh CCDC152 (11751479_a_at) / RFU FAM211A (11726209_a_at) / Fold change /veh FAM211A (11726209_a_at) / RFU RGS16 (11746705_a_at) / Fold change /veh RGS16 (11746705_a_at) / RFU VCAN (11755009_s_at) / Fold change /veh VCAN (11755009_s_at) / RFU RHOB (11743442_s_at) / Fold change /veh RHOB (11743442_s_at) / RFU RGS16 (11720943_a_at) / Fold change /veh RGS16 (11720943_a_at) / RFU RGS16 (11720944_at) / Fold change /veh RGS16 (11720944_at) / RFU, VPS4B / Fold change vs veh, VPS4B / RFU, CREB1 / Fold change vs veh, CREB1 / RFU, DNAJC13 / Fold change vs veh, DNAJC13 / RFU, GNAQ / Fold change vs veh, GNAQ / RFU, CDK5R1 / Fold change vs veh, CDK5R1 / RFU, ZRANB3 / Fold change vs veh, ZRANB3 / RFU, CUL4A / Fold change vs veh, CUL4A / RFU, CCNY / Fold change vs veh, CCNY / RFU, UFL1 / Fold change vs veh, UFL1 / RFU, COG3 / Fold change vs veh, COG3 / RFU, DIAPH2 / Fold change vs veh, DIAPH2 / RFU, SKA2 / Fold change vs veh, SKA2 / RFU, AFF3 / Fold change vs veh, AFF3 / RFU, LMF1 / Fold change vs veh, LMF1 / RFU, IPO11 / Fold change vs veh, IPO11 / RFU, DFFB / Fold change vs veh, DFFB / RFU, FOXP1 / Fold change vs veh, FOXP1 / RFU, CARD8 / Fold change vs veh, CARD8 / RFU, STRN3 / Fold change vs veh, STRN3 / RFU, ADK / Fold change vs veh, ADK / RFU, RASSF2 / Fold change vs veh, RASSF2 / RFU, WIPF1 / Fold change vs veh, WIPF1 / RFU, LARP1B / Fold change vs veh, LARP1B / RFU, RASA1 / Fold change vs veh, RASA1 / RFU, RB1 / Fold change vs veh, RB1 / RFU, PPFIA1 / Fold change vs veh, PPFIA1 / RFU, MAT2A / Fold change vs veh, MAT2A / RFU, CCT5 / Fold change vs veh, CCT5 / RFU, WDR92 / Fold change vs veh, WDR92 / RFU, CUX1 / Fold change vs veh, CUX1 / RFU, TTC7A / Fold change vs veh, TTC7A / RFU, TMEM135 / Fold change vs veh, TMEM135 / RFU, DEPTOR / Fold change vs veh, DEPTOR / RFU, CPM / Fold change vs veh, CPM / RFU, DNAJB6 / Fold change vs veh, DNAJB6 / RFU, CACNA2D3 / Fold change vs veh, CACNA2D3 / RFU, DTX4 / Fold change vs veh, DTX4 / RFU, TFCP2 / Fold change vs veh, TFCP2 / RFU, GMCL1 /// GMCL1P1 / Fold change vs veh, GMCL1 /// GMCL1P1 / RFU, AEBP2 / Fold change vs veh, AEBP2 / RFU, SNHG1 /// SNORD22 /// SNORD25 /// SNORD26 /// SNORD27 /// SNORD28 /// SNORD29 /// SNORD31 / Fold change vs veh, SNHG1 /// SNORD22 /// SNORD25 /// SNORD26 /// SNORD27 /// SNORD28 /// SNORD29 /// SNORD31 / Fold change (Aza/veh), C12orf56 (ProbeSet 11735607_a_at) / Fold change (ACY-1035/veh), C12orf56 (ProbeSet 11735607_a_at) / Fold change (Aza/veh), FGFR1OP (ProbeSet 11751329_s_at) / Fold change (ACY-1035/veh), FGFR1OP (ProbeSet 11751329_s_at) / Fold change (Aza/veh), VPS36 (ProbeSet 11739960_a_at) / Fold change (ACY-1035/veh), VPS36 (ProbeSet 11739960_a_at) / RFU SYPL1 (11715823_x_at) / Fold change /veh SYPL1 (11715823_x_at) / RFU IGFBP7 (11715501_s_at) / Fold change /veh IGFBP7 (11715501_s_at) / RFU REEP3 (11722064_at) / Fold change /veh REEP3 (11722064_at) / RFU IGLL1 (11728026_x_at) / Fold change /veh IGLL1 (11728026_x_at): dose or concentration left out as unconfirmed
Conditions: ProbeSet 11732165_x_at; LIST D

`Nc1ccc(-c2cccs2)cc1NC(=O)c1ccc2c(c1)cc(C1CC1)n2CCN1CCOCC1` [ACY-1035] was tested. Which “Fold change vs veh, LMF1” value did it give?
The value was 0.85.

Reference: PMC5218480 (PLoS ONE, 2017)
